From patent publication US4120864A, “1,2,4-4H-triazole derivatives” (Rohm and Haas Company, priority 1972, dated 1978)
Like-named read-outs stand apart in the source and are kept apart here.

Experiments:
Type in all cases: in vivo
[1] = system: wheat leaf rust, Puccinia recondita
[2] = system: wheat leaf rust, Puccinia recondita; assay: whole plant or invertebrate; details: foliar; for pest or weed control at 280.212 g/ha: read-out: % Control (with 1" of rain), foliar, 0.25 lb., 1" of rain; for pest or weed control at 1120.85 g/ha: read-out: % Control (with 1" of rain), foliar, 1 lb., 1" of rain
[3] = system: wheat leaf rust, Puccinia recondita; assay: whole plant or invertebrate; details: foliar; for pest or weed control at 280.212 g/ha: read-out: % Control (without rain), foliar, 0.25 lb.; for pest or weed control at 1120.85 g/ha: read-out: % Control (without rain), foliar, 1 lb.
[4] = system: wheat leaf rust, Puccinia recondita; assay: Foliar systemic activity on leaf rust
Text: Another type of systemic test was run in which pots of approximately 5 inch high wheat plants were sprayed with varying concentrations of the test compound. Thirty-six hours later they were sprayed six minutes in a rain machine which amounted to about one inch of normal rainfall. The plants were then placed in a greenhouse for 7 days and then inoculated with a spore suspension of wheat leaf rust, Puccinia recondita. About 7 days later lesion counts were made on ten leaves representing the sprayed leaves and new growth from each replicate and compared with similar pots of wheat plants which were untreated with a chemical and the percent disease control determined. Disease control on the new growth is a measure of systemic activity. The commercial product known by the trademarked name Plantvax, which is 2,3-dihydro-5-carboxanilido-6-methyl-1,4-oxathiin-4,4-dioxide, was used as a standard.

CCCCn1cnnc1 [Example 3, 4-n-butyl-1,2,4-triazole]
% Systemic Wheat Leaf Rust Control ([1]; 2.5 ppm in soil): 100%
% Systemic Wheat Leaf Rust Control ([1]; 5 ppm in soil): 100%
% Systemic Wheat Leaf Rust Control ([1]; 10 ppm in soil): 100%
pest or weed control at 280.212 g/ha [2]: 100%
pest or weed control at 1120.85 g/ha [2]: 100%
pest or weed control at 280.212 g/ha [3]: 100%
pest or weed control at 1120.85 g/ha [3]: 100%
% Rust Control, New growth ([4]; 1/2 lb./100 gal.): 100%
% Rust Control, Sprayed Leaf ([4]; 1/2 lb./100 gal.): 99%
% Rust Control, New growth ([4]; 1/6 lb./100 gal.): 98%
% Rust Control, Sprayed Leaf ([4]; 1/6 lb./100 gal.): 99%
% Rust Control, New growth ([4]; 1/12 lb./100 gal.): 85%
% Rust Control, Sprayed Leaf ([4]; 1/12 lb./100 gal.): 97%

CCCCn1c(SC(=O)NC)nnc1C(=O)O [Example 99, 3-methylcarbamoylmercapto-4-n-butyl 5-carboxy-1,2,4-triazole]
% Systemic Wheat Leaf Rust Control ([1]; 2.5 ppm in soil): 96%
% Systemic Wheat Leaf Rust Control ([1]; 5 ppm in soil): 99%
% Systemic Wheat Leaf Rust Control ([1]; 10 ppm in soil): 100%
pest or weed control at 280.212 g/ha [2]: 100%
pest or weed control at 1120.85 g/ha [2]: 100%
pest or weed control at 280.212 g/ha [3]: 99%
pest or weed control at 1120.85 g/ha [3]: 99%
% Rust Control, New growth ([4]; 1/2 lb./100 gal.): 82%
% Rust Control, Sprayed Leaf ([4]; 1/2 lb./100 gal.): 69%
% Rust Control, New growth ([4]; 1/6 lb./100 gal.): 69%
% Rust Control, Sprayed Leaf ([4]; 1/6 lb./100 gal.): 74%
% Rust Control, New growth ([4]; 1/12 lb./100 gal.): 56%
% Rust Control, Sprayed Leaf ([4]; 1/12 lb./100 gal.): 81%

CCCCn1cnnc1SCC(N)=O [Example 111, 3-carbamoylmethylmercapto-4-n butyl-1,2,4-triazole]
% Systemic Wheat Leaf Rust Control ([1]; 2.5 ppm in soil): 76%
% Systemic Wheat Leaf Rust Control ([1]; 5 ppm in soil): 91%
% Systemic Wheat Leaf Rust Control ([1]; 10 ppm in soil): 92%
pest or weed control at 280.212 g/ha [2]: 93%
pest or weed control at 1120.85 g/ha [2]: 100%
pest or weed control at 280.212 g/ha [3]: 100%
pest or weed control at 1120.85 g/ha [3]: 100%
% Rust Control, New growth ([4]; 1/2 lb./100 gal.): 88%
% Rust Control, Sprayed Leaf ([4]; 1/2 lb./100 gal.): 88%
% Rust Control, New growth ([4]; 1/6 lb./100 gal.): 59%
% Rust Control, Sprayed Leaf ([4]; 1/6 lb./100 gal.): 51%
% Rust Control, New growth ([4]; 1/12 lb./100 gal.): 38%
% Rust Control, Sprayed Leaf ([4]; 1/12 lb./100 gal.): 49%

CCCn1cnnc1 [Example 1, 4-n-propyl-1,2,4-triazole]
% Systemic Wheat Leaf Rust Control ([1]; 2.5 ppm in soil): 99%
% Systemic Wheat Leaf Rust Control ([1]; 5 ppm in soil): 100%
pest or weed control at 280.212 g/ha [2]: 87%
pest or weed control at 1120.85 g/ha [2]: 100%
pest or weed control at 280.212 g/ha [3]: 100%
pest or weed control at 1120.85 g/ha [3]: 100%

CCCCn1cnnc1SC(=O)c1ccco1 [Example 124, 3-furoylmercapto-4-n-butyl-1,2,4-triazole]
% Systemic Wheat Leaf Rust Control ([1]; 2.5 ppm in soil): 94%
% Systemic Wheat Leaf Rust Control ([1]; 5 ppm in soil): 99%
% Systemic Wheat Leaf Rust Control ([1]; 10 ppm in soil): 99%
pest or weed control at 280.212 g/ha [2]: 100%
pest or weed control at 1120.85 g/ha [2]: 100%
pest or weed control at 280.212 g/ha [3]: 100%
pest or weed control at 1120.85 g/ha [3]: 100%

Clc1ccc(-n2cnnc2)cc1Cl [Example 57, 4-(3,4-dichlorophenyl)-1,2,4-triazole]
% Systemic Wheat Leaf Rust Control ([1]; 2.5 ppm in soil): 54%
% Systemic Wheat Leaf Rust Control ([1]; 10 ppm in soil): 68%
pest or weed control at 280.212 g/ha [2]: 40%
pest or weed control at 1120.85 g/ha [2]: 60%
pest or weed control at 280.212 g/ha [3]: 80%
pest or weed control at 1120.85 g/ha [3]: 90%

CC(C)Cn1cnnc1 [Example 4, 4-isobutyl-1,2,4-triazole]
% Systemic Wheat Leaf Rust Control ([1]; 20 ppm in soil): 100%
pest or weed control at 280.212 g/ha [2]: 30%
pest or weed control at 1120.85 g/ha [2]: 60%
pest or weed control at 280.212 g/ha [3]: 95%
pest or weed control at 1120.85 g/ha [3]: 95%

Clc1ccc(-n2cnnc2)nc1 [Example 63, 4-(5-chloro-2-pyridyl)-1,2,4-triazole]
% Systemic Wheat Leaf Rust Control ([1]; 20 ppm in soil): 95%
pest or weed control at 280.212 g/ha [2]: 45%
pest or weed control at 1120.85 g/ha [2]: 85%
pest or weed control at 280.212 g/ha [3]: 90%
pest or weed control at 1120.85 g/ha [3]: 95%

N#CCCn1ncn(-c2ccccc2)c1=S [Example 126, 2-(2-cyanoethyl)-4-phenyl-1,2,4-triazoline-3-thione]
pest or weed control at 280.212 g/ha [2]: 83%
pest or weed control at 1120.85 g/ha [2]: 96%
pest or weed control at 280.212 g/ha [3]: 93%
pest or weed control at 1120.85 g/ha [3]: 96%
% Rust Control, New growth ([4]; 1/2 lb./100 gal.): 42%
% Rust Control, Sprayed Leaf ([4]; 1/2 lb./100 gal.): 13%
% Rust Control, New growth ([4]; 1/6 lb./100 gal.): 27%
% Rust Control, Sprayed Leaf ([4]; 1/6 lb./100 gal.): 0%
% Rust Control, New growth ([4]; 1/12 lb./100 gal.): 0%
% Rust Control, Sprayed Leaf ([4]; 1/12 lb./100 gal.): 0%

CCCCCn1cnnc1S [Example 78, 3-mercapto-4-n-pentyl-1,2,4-triazole]
% Systemic Wheat Leaf Rust Control ([1]; 2.5 ppm in soil): 97%
% Systemic Wheat Leaf Rust Control ([1]; 5 ppm in soil): 97%
% Systemic Wheat Leaf Rust Control ([1]; 10 ppm in soil): 97%
pest or weed control at 280.212 g/ha [2]: 100%
pest or weed control at 1120.85 g/ha [2]: 100%
pest or weed control at 280.212 g/ha [3]: 97%
pest or weed control at 1120.85 g/ha [3]: 100%
% Rust Control, New growth ([4]; 1/2 lb./100 gal.): 92%
% Rust Control, Sprayed Leaf ([4]; 1/2 lb./100 gal.): 98%
% Rust Control, New growth ([4]; 1/6 lb./100 gal.): 79%
% Rust Control, Sprayed Leaf ([4]; 1/6 lb./100 gal.): 96%
% Rust Control, New growth ([4]; 1/12 lb./100 gal.): 57%
% Rust Control, Sprayed Leaf ([4]; 1/12 lb./100 gal.): 91%
